Measurements from ChEMBL document CHEMBL5331050, “Spiro[benzoxazine-piperidin]-one derivatives as chitin synthase inhibitors and antifungal agents: Design, synthesis and biological evaluation” (Eur J Med Chem, 2022).
≈ marks a conversion by molar mass, not a printed value. *1 amine or outer side, *2 acyl side, *3 side chain or, on linkers, in order; H or OH if unused. Where a SMILES comes first, the peptide text is derived from it. Bridges are numbered along the chain shown (N, C = ends). [ ]: non-standard residue; d: D form. The star is where a group is joined. hTyr(3S-OH,4S-OH,3'-OSO3H) = N[C@H](C(=O)O)[C@H](O)[C@@H](O)c1ccc(O)c(OS(=O)(=O)O)c1; Orn(4R-OH,5R-OH) = O=C([C@H](C[C@@H](O)[C@@H](O)N[*:3])N[*:1])[*:2]; Pro(3S-OH,4S-Me) = C[C@H]1CN[C@H](C(=O)O)[C@H]1O; X1 = CCCCCOc1ccc(-c2cc(-c3ccc(C(=O)*)cc3)no2)cc1; Gln(3R-OH) = NC(=O)C[C@@H](O)[C@H](N)C(=O)O; Hyp = O=C(O)[C@@H]1C[C@@H](O)CN1

Key:
[1] = test system: Candida albicans; experiment: Antifungal activity against Candida albicans ATCC 76615 assessed as fungal growth inhibition incubated for 24 hrs by CLSI protocol based broth microdilution method; format: functional
[2] = test system: Aspergillus fumigatus; experiment: Antifungal activity against Aspergillus fumigatus GIMCC 3.19 assessed as fungal growth inhibition incubated for 24 hrs by CLSI protocol based broth microdilution method; format: functional
[3] = Inhibition of Candida tropicalis ATCC 750 chitin synthase using UDP-GlcNAc as substrate incubated for 1 hrs by absorbance based assay
[4] = test system: Candida tropicalis; experiment: Inhibition of Candida tropicalis ATCC 750 chitin synthase using UDP-GlcNAc as substrate at 300 ug/ml incubated for 1 hrs by absorbance based assay relative to control; settings: dose 300.0 µg/ml
[5] = test system: Cryptococcus neoformans; experiment: Antifungal activity against Cryptococcus neoformans ATCC 208821 assessed as fungal growth inhibition incubated for 24 hrs by CLSI protocol based broth microdilution method; format: functional
[6] = test system: Aspergillus flavus; experiment: Antifungal activity against Aspergillus flavus ATCC 16870 assessed as fungal growth inhibition incubated for 24 hrs by CLSI protocol based broth microdilution method; format: functional
[7] = test system: Candida albicans; experiment: Antifungal activity against micafungin-resistant Candida albicans ATCC 76615R assessed as fungal growth inhibition; format: functional
[8] = test system: Cryptococcus neoformans; experiment: Antifungal activity against fluconazole-resistant Cryptococcus neoformans ATCC 208821R assessed as fungal growth inhibition; format: functional
[9] = Selectivity ratio of MIC for antifungal activity against Candida albicans ATCC 76615 assessed as disruption of fungal wall by measuring fungal growth incubated for 24 hrs in the presence of sorbitol to MIC for antifungal activity against Candida albicans ATCC 76615 assessed as fungal growth inhibition; format: functional
[10] = test system: Cryptococcus neoformans; experiment: Antifungal activity against Cryptococcus neoformans ATCC 208821 assessed as disruption of fungal wall by measuring fungal growth incubated for 24 hrs in the presence of sorbitol; format: functional
[11] = test system: Candida albicans; experiment: Antifungal activity against Candida albicans ATCC 76615 assessed as disruption of fungal wall by measuring fungal growth incubated for 24 hrs in the presence of sorbitol; format: functional
[12] = test system: Candida albicans; experiment: Antifungal activity against fluconazole-resistant Candida albicans ATCC 76615R assessed as fungal growth inhibition; format: functional
[13] = Inhibition of chitin synthase (unknown origin); parameters: species or system Fungi
[14] = test system: Aspergillus fumigatus; experiment: Synergistic antifungal activity against Aspergillus fumigatus GIMCC 3.19 assessed as fungal growth inhibition incubated for 24 hrs in the presence of fluconazole by broth dilution based checkerboard method; format: functional
[15] = test system: Candida albicans; experiment: Synergistic antifungal activity against Candida albicans ATCC 76615 assessed as fractional inhibitory concentration index incubated for 24 hrs in the presence of fluconazole by broth dilution based checkerboard method; format: functional
[16] = test system: Cryptococcus neoformans; experiment: Synergistic antifungal activity against Cryptococcus neoformans ATCC 208821 assessed as fungal growth inhibition incubated for 24 hrs in the presence of fluconazole by broth dilution based checkerboard method; format: functional
[17] = test system: Aspergillus flavus; experiment: Synergistic antifungal activity against Aspergillus flavus ATCC 16870 assessed as fractional inhibitory concentration index incubated for 24 hrs in the presence of fluconazole by broth dilution based checkerboard method; format: functional
[18] = test system: Candida albicans; experiment: Synergistic antifungal activity against Candida albicans ATCC 76615 assessed as fungal growth inhibition incubated for 24 hrs in the presence of fluconazole by broth dilution based checkerboard method; format: functional
[19] = test system: Aspergillus flavus; experiment: Synergistic antifungal activity against Aspergillus flavus ATCC 16870 assessed as fungal growth inhibition incubated for 24 hrs in the presence of fluconazole by broth dilution based checkerboard method; format: functional
[20] = test system: Aspergillus fumigatus; experiment: Synergistic antifungal activity against Aspergillus fumigatus GIMCC 3.19 assessed as fractional inhibitory concentration index incubated for 24 hrs in the presence of fluconazole by broth dilution based checkerboard method; format: functional
[21] = test system: Cryptococcus neoformans; experiment: Synergistic antifungal activity against Cryptococcus neoformans ATCC 208821 assessed as fractional inhibitory concentration index incubated for 24 hrs in the presence of fluconazole by broth dilution based checkerboard method; format: functional
[22] = test system: Aspergillus flavus; experiment: Antifungal activity against Aspergillus flavus ATCC 16870 assessed as disruption of fungal wall by measuring fungal growth incubated for 24 hrs in the presence of sorbitol; format: functional
[23] = test system: Aspergillus fumigatus; experiment: Antifungal activity against Aspergillus fumigatus GIMCC 3.19 assessed as disruption of fungal wall by measuring fungal growth incubated for 24 hrs in the presence of sorbitol; format: functional

| SMILES | MIC [1] [µg/mL] | MIC [2] [µg/mL] | IC50 [3] [µM] | inhibition [4] [%] | MIC [5] [µg/mL] | MIC [6] [µg/mL] | MIC [7] [µg/mL] | MIC [8] [µg/mL] | MIC [10] [µg/mL] | MIC [12] [µg/mL] | MIC [14] [µg/mL] | fractional inhibitory concentration index (FICI) [15] | MIC [16] [µg/mL] | fractional inhibitory concentration index (FICI) [17] | MIC [18] [µg/mL] | MIC [19] [µg/mL] | fractional inhibitory concentration index (FICI) [20] | fractional inhibitory concentration index (FICI) [21] | also measured |
| --- | --- | --- | --- | --- | --- | --- | --- | --- | --- | --- | --- | --- | --- | --- | --- | --- | --- | --- | --- |
| COc1ccc2c(c1)C1(CCN(C(=O)/C=C/C(=O)Nc3ccccc3OC)CC1)OC(=O)N2 | 64 (≈ 142 µM) | 128 (≈ 284 µM) | 330 | 60 | 256 (≈ 567 µM) | 128 (≈ 284 µM) |  |  |  |  |  |  |  |  |  |  |  |  |  |
| CCCCCOc1ccc(-c2cc(-c3ccc(C(=O)N[C@H]4C[C@@H](O)[C@@H](O)NC(=O)[C@@H]5[C@@H](O)[C@@H](C)CN5C(=O)[C@H]([C@H](O)CC(N)=O)NC(=O)[C@H]([C@H](O)[C@@H](O)c5ccc(O)c(OS(=O)(=O)O)c5)NC(=O)[C@@H]5C[C@@H](O)CN5C(=O)[C@H]([C@@H](C)O)NC4=O)cc3)no2)cc1 [MICAFUNGIN] (X1-[Orn(4R-OH,5R-OH)]T[Hyp][hTyr(3S-OH,4S-OH,3'-OSO3H)][Gln(3R-OH)][Pro(3S-OH,4S-Me)]; lactam 1-C) | 0.063 (≈ 0.0496 µM) |  |  |  | > 512 |  | 256 (≈ 202 µM) |  |  |  |  |  |  |  |  |  |  |  |  |
| COc1cc(Br)c(NC(=O)/C=C/C(=O)N2CCC3(CC2)OC(=O)Nc2ccc(OC)cc23)c(Br)c1 | 64 (≈ 105 µM) | 128 (≈ 210 µM) | 110 | 72 | 64 (≈ 105 µM) | 256 (≈ 420 µM) | 64 (≈ 105 µM) | 64 (≈ 105 µM) | 512 | 64 (≈ 105 µM) |  |  |  |  |  |  |  |  | Ratio [9]: 8; MIC [11]: 512 µg/mL |
| Cc1cccc(NC(=O)/C=C/C(=O)NC2Cc3ccccc3NC2=O)c1 (stereo not drawn) |  |  |  |  |  |  |  |  |  |  |  |  |  |  |  |  |  |  | IC50 [13]: 90 µM |
| COc1ccc2c(c1)C1(CCN(C(=O)/C=C/C(=O)Nc3ccc(F)c(Cl)c3)CC1)OC(=O)N2 | 64 (≈ 135 µM) | 16 (≈ 33.8 µM) | 160 | 70 | 64 (≈ 135 µM) | 16 (≈ 33.8 µM) | 64 (≈ 135 µM) | 64 (≈ 135 µM) |  | 53.3 (≈ 113 µM) | 8 | 2 | 32 | 1.125 | 64 | 64 | 0.75 | 0.625 |  |
| O=C(/C=C/C(=O)N1CCCC12Cc1ccccc1NC2=O)Nc1cccc([N+](=O)[O-])c1 (stereo not drawn) |  |  |  |  |  |  |  |  |  |  |  |  |  |  |  |  |  |  | IC50 [13]: 100 µM |
| COc1ccc(NC(=O)/C=C/C(=O)N2CCC3(CC2)OC(=O)Nc2ccc(OC)cc23)cc1 | 64 (≈ 142 µM) | 128 (≈ 284 µM) | 210 | 82 | 256 (≈ 567 µM) | 64 (≈ 142 µM) |  |  |  |  | 26 | 1.1 | 32 | 3 | 6.67 | 128 | 1.125 | 0.625 |  |
| COc1ccc2c(c1)C1(CCN(C(=O)/C=C/C(=O)Nc3ccc(Br)cc3)CC1)OC(=O)N2 | 26.7 (≈ 53.3 µM) | 64 (≈ 128 µM) | 140 | 83 | 64 (≈ 128 µM) | 32 (≈ 64 µM) | 32 (≈ 64 µM) | 53.3 (≈ 107 µM) | 256 | 32 (≈ 64 µM) | 32 | 0.85 | 32 | 3.67 | 16 | 53.3 | 1.25 | 1 | Ratio [9]: 8; MIC [11]: 256 µg/mL; MIC [22]: 256 µg/mL; MIC [23]: 512 µg/mL |
| COc1ccc2c(c1)C1(CCN(C(=O)/C=C/C(=O)Nc3ccc([N+](=O)[O-])cc3OC)CC1)OC(=O)N2 | 128 (≈ 258 µM) | 64 (≈ 129 µM) | 100 | 86 | 64 (≈ 129 µM) | 42.7 (≈ 85.9 µM) |  |  | > 512 |  | 32 | 1.13 | 32 | 1.37 | 16 | 16 | 1.5 | 1 | MIC [22]: > 512 µg/mL; MIC [23]: 512 µg/mL |
